From PubChem BioAssay AID1259407 (Chemical Carcinogenesis Research Information System (CCRIS), 2018)
Activity calls are given as the source filed them. How the calls were made is not given here.

System: CCRIS mutagenicity, Ames/micronucleus/aberration tests
Assay: CCRIS mutagenicity studies
[1] = Test System: AMES SALMONELLA TYPHIMURIUM, Strain/Indicator: TA98, Metabolic Activation: NONE, Method: PREINCUBATION
[2] = Test System: AMES SALMONELLA TYPHIMURIUM, Strain/Indicator: TA100, Metabolic Activation: NONE, Method: PREINCUBATION
[3] = Test System: AMES SALMONELLA TYPHIMURIUM, Strain/Indicator: TA1535, Metabolic Activation: NONE, Method: PREINCUBATION

CC(Cl)Cl
mutagenic call (End Point: IN VIVO CHROMOSOMAL ABERRATIONS, Test System: BONE MARROW, Species: MOUSE, Strain/Sex: SWISS-WEBSTER/MALE, Route: INTRAPERITONEAL): active; positive (structural changes) | mutagenic call (End Point: IN VIVO MICRONUCLEUS, Test System: BONE MARROW, Species: MOUSE, Strain/Sex: SWISS-WEBSTER/MALE, Route: INTRAPERITONEAL): active; positive (dose-dependent) | mutagenic call (Test System: AMES SALMONELLA TYPHIMURIUM, Strain/Indicator: TA97, Metabolic Activation: HAMSTER, LIVER, S-9, AROCLOR 1254 (10%), Method: PREINCUBATION): inactive; negative | mutagenic call (Test System: AMES SALMONELLA TYPHIMURIUM, Strain/Indicator: TA97, Metabolic Activation: HAMSTER, LIVER, S-9, AROCLOR 1254 (30%), Method: PREINCUBATION): inactive; negative | mutagenic call (Test System: AMES SALMONELLA TYPHIMURIUM, Strain/Indicator: TA97, Metabolic Activation: NONE, Method: PREINCUBATION): inactive; negative | mutagenic call (Test System: AMES SALMONELLA TYPHIMURIUM, Strain/Indicator: TA97, Metabolic Activation: RAT, LIVER, S-9, AROCLOR 1254 (10%), Method: PREINCUBATION): inactive; negative | mutagenic call (Test System: AMES SALMONELLA TYPHIMURIUM, Strain/Indicator: TA97, Metabolic Activation: RAT, LIVER, S-9, AROCLOR 1254 (30%), Method: PREINCUBATION): inactive; negative | mutagenic call (Test System: AMES SALMONELLA TYPHIMURIUM, Strain/Indicator: TA98, Metabolic Activation: HAMSTER, LIVER, S-9, AROCLOR 1254 (10%), Method: PREINCUBATION): inactive; negative | mutagenic call (Test System: AMES SALMONELLA TYPHIMURIUM, Strain/Indicator: TA98, Metabolic Activation: HAMSTER, LIVER, S-9, AROCLOR 1254 (30%), Method: PREINCUBATION): inactive; negative | mutagenic call [1]: inactive; negative | mutagenic call (Test System: AMES SALMONELLA TYPHIMURIUM, Strain/Indicator: TA98, Metabolic Activation: RAT, LIVER, S-9, AROCLOR 1254 (10%), Method: PREINCUBATION): inactive; negative | mutagenic call (Test System: AMES SALMONELLA TYPHIMURIUM, Strain/Indicator: TA98, Metabolic Activation: RAT, LIVER, S-9, AROCLOR 1254 (30%), Method: PREINCUBATION): inactive; negative | mutagenic call (Test System: AMES SALMONELLA TYPHIMURIUM, Strain/Indicator: TA100, Metabolic Activation: HAMSTER, LIVER, S-9, AROCLOR 1254 (10%), Method: PREINCUBATION): inactive; negative | mutagenic call (Test System: AMES SALMONELLA TYPHIMURIUM, Strain/Indicator: TA100, Metabolic Activation: HAMSTER, LIVER, S-9, AROCLOR 1254 (30%), Method: PREINCUBATION): inactive; negative | mutagenic call [2]: inactive; negative | mutagenic call (Test System: AMES SALMONELLA TYPHIMURIUM, Strain/Indicator: TA100, Metabolic Activation: RAT, LIVER, S-9, AROCLOR 1254 (10%), Method: PREINCUBATION): inactive; negative | mutagenic call (Test System: AMES SALMONELLA TYPHIMURIUM, Strain/Indicator: TA100, Metabolic Activation: RAT, LIVER, S-9, AROCLOR 1254 (30%), Method: PREINCUBATION): inactive; negative | mutagenic call (Test System: AMES SALMONELLA TYPHIMURIUM, Strain/Indicator: TA1535, Metabolic Activation: HAMSTER, LIVER, S-9, AROCLOR 1254 (10%), Method: PREINCUBATION): inactive; negative | mutagenic call (Test System: AMES SALMONELLA TYPHIMURIUM, Strain/Indicator: TA1535, Metabolic Activation: HAMSTER, LIVER, S-9, AROCLOR 1254 (30%), Method: PREINCUBATION): inactive; negative | mutagenic call [3]: inactive; negative | mutagenic call (Test System: AMES SALMONELLA TYPHIMURIUM, Strain/Indicator: TA1535, Metabolic Activation: RAT, LIVER, S-9, AROCLOR 1254 (10%), Method: PREINCUBATION): inactive; negative | mutagenic call (Test System: AMES SALMONELLA TYPHIMURIUM, Strain/Indicator: TA1535, Metabolic Activation: RAT, LIVER, S-9, AROCLOR 1254 (30%), Method: PREINCUBATION): inactive; negative | mutagenic call (Test System: AMES SALMONELLA TYPHIMURIUM, Strain/Indicator: TA1537, Metabolic Activation: HAMSTER, LIVER, S-9, AROCLOR 1254 (30%), Method: PREINCUBATION): inactive; negative | mutagenic call (Test System: AMES SALMONELLA TYPHIMURIUM, Strain/Indicator: TA1537, Metabolic Activation: NONE, Method: PREINCUBATION): inactive; negative | mutagenic call (Test System: AMES SALMONELLA TYPHIMURIUM, Strain/Indicator: TA1537, Metabolic Activation: RAT, LIVER, S-9, AROCLOR 1254 (30%), Method: PREINCUBATION): inactive; negative

Cc1ccc2cc3c(ccc4ccccc43)cc2c1
mutagenic call (Test System: AMES SALMONELLA TYPHIMURIUM, Strain/Indicator: TA100, Metabolic Activation: RAT, INTACT HEPATOCYTES, AROCLOR 1254, Method: PREINCUBATION): active; positive | mutagenic call (Test System: AMES SALMONELLA TYPHIMURIUM, Strain/Indicator: TA100, Metabolic Activation: RAT, NADPH-FORTIFIED HOMOGENIZED HEPATOCYTES, AROCLOR 1254, Method: PREINCUBATION): active; positive | mutagenic call (Test System: AMES SALMONELLA TYPHIMURIUM, Strain/Indicator: TA100, Metabolic Activation: RAT, SONICATED HEPATOCYTES, AROCLOR 1254, Method: PREINCUBATION): active; positive

NC(=O)N(CCC(=O)O)N=O
mutagenic call [2]: active; positive | mutagenic call [3]: active; positive | mutagenic call (Test System: E. COLI B, Strain/Indicator: H/R30R, Metabolic Activation: NONE): active; positive | mutagenic call (Test System: E. COLI B, Strain/Indicator: HS30R, Metabolic Activation: NONE): active; positive

CCOC(=O)C(C)NC(=O)C=[N+]=[N-] (stereo not given)
mutagenic call (Test System: UDS RODENT CELLS, Strain/Indicator: THY INCORP (NON-S-PHASE), Metabolic Activation: NONE, Method: AUTORADIOGRAPHY): active; positive

O=[N+]([O-])c1ccc(S(=O)(=O)O)cc1
mutagenic call [1]: inactive; negative | mutagenic call (Test System: AMES SALMONELLA TYPHIMURIUM, Strain/Indicator: TA98, Metabolic Activation: RAT, LIVER, S-9, KANECHLOR 500, Method: PREINCUBATION): inactive; negative | mutagenic call [2]: inactive; negative | mutagenic call (Test System: AMES SALMONELLA TYPHIMURIUM, Strain/Indicator: TA100, Metabolic Activation: RAT, LIVER, S-9, KANECHLOR 500, Method: PREINCUBATION): inactive; negative

COc1ccc2c(c1)nc(N)n2C
mutagenic call (Test System: AMES SALMONELLA TYPHIMURIUM, Strain/Indicator: TA98, Metabolic Activation: RAT, LIVER, S-9, AROCLOR 1254, Method: PREINCUBATION): active; positive | mutagenic call (Test System: AMES SALMONELLA TYPHIMURIUM, Strain/Indicator: TA100, Metabolic Activation: RAT, LIVER, S-9, AROCLOR 1254, Method: PREINCUBATION): active; positive

O=C(O)CN(CCN(CC(=O)O)Cc1ccccc1O)Cc1ccccc1O
mutagenic call (Test System: Mouse lymphoma, Strain/Indicator: L5178Y (tk+/tk-), Metabolic Activation: None, Method: Suspension/plate): active; positive | mutagenic call (Test System: Mouse lymphoma, Strain/Indicator: L5178Y (tk+/tk-), Metabolic Activation: Rat, Liver, S-9, Aroclor 1254, Method: Suspension/plate): active; positive

COP(=S)(OC)Oc1nc(Cl)c(Cl)cc1Cl
mutagenic call (Test System: AMES SALMONELLA TYPHIMURIUM, Strain/Indicator: TA98, Metabolic Activation: NONE): inactive; negative | mutagenic call (Test System: AMES SALMONELLA TYPHIMURIUM, Strain/Indicator: TA98, Metabolic Activation: RAT, LIVER, S-9, AROCLOR 1254): inactive; negative | mutagenic call (Test System: AMES SALMONELLA TYPHIMURIUM, Strain/Indicator: TA100, Metabolic Activation: NONE): inactive; negative | mutagenic call (Test System: AMES SALMONELLA TYPHIMURIUM, Strain/Indicator: TA100, Metabolic Activation: RAT, LIVER, S-9, AROCLOR 1254): inactive; negative | mutagenic call (Test System: AMES SALMONELLA TYPHIMURIUM, Strain/Indicator: TA102, Metabolic Activation: NONE): inactive; negative | mutagenic call (Test System: AMES SALMONELLA TYPHIMURIUM, Strain/Indicator: TA102, Metabolic Activation: RAT, LIVER, S-9, AROCLOR 1254): inactive; negative | mutagenic call (Test System: AMES SALMONELLA TYPHIMURIUM, Strain/Indicator: TA1535, Metabolic Activation: NONE): inactive; negative | mutagenic call (Test System: AMES SALMONELLA TYPHIMURIUM, Strain/Indicator: TA1535, Metabolic Activation: RAT, LIVER, S-9, AROCLOR 1254): inactive; negative | mutagenic call (Test System: AMES SALMONELLA TYPHIMURIUM, Strain/Indicator: TA1537, Metabolic Activation: NONE): inactive; negative | mutagenic call (Test System: AMES SALMONELLA TYPHIMURIUM, Strain/Indicator: TA1537, Metabolic Activation: RAT, LIVER, S-9, AROCLOR 1254): inactive; negative

Cn1c(N)nc2c3ccc(=O)[nH]c3ccc21
mutagenic call [1]: active; positive | mutagenic call (Test System: AMES SALMONELLA TYPHIMURIUM, Strain/Indicator: TA98, Metabolic Activation: NONE, Method: STANDARD PLATE): active; positive | mutagenic call (Test System: AMES SALMONELLA TYPHIMURIUM, Strain/Indicator: TA98, Metabolic Activation: RAT, LIVER, S-9, AROCLOR 1254 (0.5-3 MG/ML), Method: PREINCUBATION): active; positive | mutagenic call (Test System: AMES SALMONELLA TYPHIMURIUM, Strain/Indicator: TA98, Metabolic Activation: RAT, LIVER, S-9, AROCLOR 1254, Method: STANDARD PLATE): active; positive
